From US12576081B2 (MEZZION PHARMA CO., LTD., priority 2019, dated 2026)
“And” between values parts separate entries of the source, which are not always exact repeats. Identical values can stand only once.

Legend:
[1] = system: adolescents with SVHD who had undergone Fontan palliation; experiment: FUEL trial, echocardiographic myocardial performance index (blood pool Doppler); assay type: in vivo, human; conditions: for MPI difference, Week 26 − Baseline, mean (SD): paired data, decrease shows improvement, p 0.028 vs placebo
From the text: Generally speaking, MPI (also referred to as the Doppler-derived index or Tei Index) is a measure of ventricular systolic and diastolic function as determined by a focused echocardiogram. It combines systolic and diastolic time intervals to assess heart function. More specifically, MPI can be used to assess ventricular performance represented by a numeric value using cardiac time intervals. This numeric value equals the sum of isovolumetric contraction time (ICT) and isovolumetric relaxation time (IRT) divided by ejection time (ET) and can be determined for either the left or right ventricle. Pellett, A. A., et al.: The Tei Index: Methodology and Disease. State Values. Echocardiography. A Jrnl. of CV Ultrasound & Allied Tech. 21(7):669-672 (2004); and Ulugay, A., Tatli E.: Myocardial performance index. Anadolu Kardiyol Derg 8(2):143-8 (April, 2008), both of which are incorporated herein by reference in their entireties. In the FUEL Trial, the MPI measured the performance of the single functioning ventricle. Thus, the MPI results from the FUEL Trial were determined by velocities obtained from blood pool Doppler assessment of the inflow and outflow tract of the functioning single ventricle. In other words, the FUEL Trial MPI was determined by measuring the cardiac time intervals using pulsed-wave Doppler velocity spectra of the ventricular inflow and outflow of the single functioning ventricle.
Echocardiograms were performed by sonographers with specific training for this protocol. The primary outcome of interest was MPI using Doppler-based measures of inflow and outflow duration. The duration of inflow into the dominant ventricle and outflow across the dominant semilunar valve were measured and used to calculate MPI using the standard formula. Tei C, Ling L H, Hodge D O, et al.: New index of combined systolic and diastolic myocardial performance: a simple and reproducible measure of cardiac—a study in normals and dilated cardiomyopathy. J Cardiol, 26(6):357-66 (1995); and Pellet A A et al.: The Tei Index Methodology and Disease State Values. Echocardiography: A Jrnl Of CV Ultrasound & Allied Tech, 21(7):669-672 (2004) Additional tissue Doppler images were obtained and used to calculate the tissue Doppler based MPI as previously described. Harada K, Tamura M, Toyono M et al.: Comparison of the right ventricular Tei index by tissue Doppler imaging to that obtained by pulsed Doppler in children without heart disease. Am J Cardiol, 90(5):566-9 (2002). Whenever possible, three measurements were made and the mean duration was used for the calculation.
(§1) The primary outcome was the change in oxygen consumption at peak exercise (max or peak VO2) from baseline to the 26-week visit. Secondary exercise outcomes included change in additional measures at maximal exertion, as well as change in measures of submaximal exercise at the ventilatory anaerobic threshold (VAT). The primary outcome for clinical secondary aims included change in myocardial performance index (MPI), an echocardiographically-derived measure of systolic and diastolic ventricular function, change in log-transformed reactive hyperemia index (lnRHI), a PAT-derived measure of peripheral vascular function, and change in log-transformed serum BNP level. Safety was monitored through adverse event reports, which were collected according to a pre-specified protocol of study coordinator outreach, and through ad hoc patient and family communication with members of the study team at each site.
Baseline clinical testing completed before drug initiation included a blood draw to measure brain-type natriuretic peptide (BNP) level, a cardiopulmonary exercise test (CPET) using a standardized cycle ergometer ramp protocol, a standardized echocardiogram, and an assessment of peripheral vascular function using peripheral arterial tonometry (PAT) measured by finger cuff (EndoPAT; Itamar Medical, Israel). […]

[2] = system: adolescents with SVHD who had undergone Fontan palliation; experiment: FUEL trial, safety and tolerability (adverse event reports); assay type: in vivo, human
From the text: as §1
The primary outcome for clinical secondary aims included the between group differences in change in myocardial performance index (MPI), an echocardiographically-derived measure of systolic and diastolic ventricular function, change in log-transformed reactive hyperemia index (lnRHI), a PAT-derived measure of peripheral vascular function, and change in log-transformed serum BNP level. Measurements for each of these secondary outcomes were performed at core labs. Safety was monitored through adverse event reports, which were collected according to a pre-specified protocol of study coordinator outreach, and through adhoc patient and family communication with members of the study team at each site.
(§2) A sample size of 200 participants per arm was chosen to allow for 90% power to detect a mean treatment difference in change from baseline to 26-week testing in peak VO2 of 10% with a type 1 error of 0.05. We assumed a baseline standard deviation of 7.235 ml/kg/min, a correlation between peak VO2 measurements of 0.33, a drop-out and incomplete testing rate of 10%, and failure to reach maximal effort at the 26-week exercise testing in 15% of participants. These assumptions were based on historical data and reflect a conservative approach to assessing within-participant correlations and failure to reach maximal effort and the analysis was performed using a two-sample, independent means t-test. The primary analysis used the intention-to-treat population to evaluate the difference in the change in the primary outcome between treatment arms. This difference was assessed with an analysis of covariance (ANCOVA) with fixed factors for ventricular morphology (single left versus single right or mixed) and treatment group, with a continuous covariate of baseline peak VO2. For those without data at the 26-week visit, this value was imputed as equal to the baseline value (no change). The alpha level was set at 0.05 with two-sided testing. All statistical analyses were performed using SAS statistical software 9.4 (SAS Institute, Inc., Cary, North Carolina). Secondary analyses included participants who successfully completed the protocol with measurable values at each of the secondary endpoints. Secondary outcomes of continuous data points were analyzed in the manner described for the primary outcome. In order to assess the generalizability of findings at the ventilatory anaerobic threshold, demographic and clinical characteristics were compared between participants without paired VO2 at VAT data and those comprising the remainder of the cohort using the Student's t-test and Fisher's exact test. Fisher's exact test was used to compare adverse events between the udenafil and placebo cohorts.

[3] = system: adolescents with SVHD who had undergone Fontan palliation; experiment: FUEL trial, cardiopulmonary exercise test (cycle ergometer ramp protocol), peak exercise and ventilatory anaerobic threshold; assay type: in vivo, human
Description: (§3) The FUEL Trial was conducted at 30 centers around the world. […] (Funded by Mezzion Pharma Co. Ltd., and conducted by the National Heart, Lung, and Blood Institute-funded Pediatric Heart Network; ClinicalTrials.gov number NCT02741115).
as §1
(§4) Baseline clinical testing completed before drug initiation included a blood draw to measure brain-type natriuretic peptide (BNP) level, a cardiopulmonary exercise test (CPET) using a standardized cycle ergometer ramp protocol, a standardized echocardiogram, and an assessment of peripheral vascular function using peripheral arterial tonometry (PAT) measured by finger cuff (EndoPAT; Itamar Medical, Israel). Participants who achieved maximal effort, defined as respiratory exchange ratio (RER)≥1.10 at peak exercise during CPET, were eligible for randomization and study drug initiation. […] End-of-study clinical testing included repeat measurement of serum BNP, CPET, echocardiogram, and PAT.
as §2, with “max” for “peak”, “The following assumption were made:” for “We assumed”, “effort.” for “effort and the analysis was performed using a two-sample, independent means t-test.”, “change).” for “change). The alpha level was set at 0.05 with two-sided testing. All statistical analyses were performed using SAS statistical software 9.4 (SAS Institute, Inc., Cary, North Carolina).”, “cohort.” for “cohort using the Student's t-test and Fisher's exact test. Fisher's exact test was used to compare adverse events between the udenafil and placebo cohorts.”
The FUEL Trial was a Phase III clinical trial conducted at 30 centers. […] The primary outcome was the between group difference in change in oxygen consumption at peak exercise. Secondary outcomes included between group differences in changes in sub-maximal exercise at the ventilatory anaerobic threshold (VAT), the myocardial performance index (MPI), the natural log of the reactive hyperemia index (lnRHI), and serum brain-type natriuretic peptide (BNP). […]

[4] = system: adolescents with SVHD who had undergone Fontan palliation; experiment: FUEL trial, resting data; assay type: in vivo, human
Description: as §3, §1
Individuals between the ages of 12 and 18 years (inclusive) who had undergone the Fontan procedure, who were not receiving treatment with a PDE5 inhibitor, who were ≥40 kg, and who met the minimum height requirement for cycle ergometry (≥132 cm) were eligible for enrollment.
Randomization assignments were generated by a web-based algorithm after confirmation of trial eligibility and consent.
as §4
A sample size of 200 participants per arm was chosen to allow for 90% power to detect a mean treatment difference in change from baseline to 26-week testing in max VO2 of 10% with a type 1 error of 0.05. The following assumption were made: a baseline standard deviation of 7.235 ml/kg/min, a correlation between max VO2 measurements of 0.33, a drop-out and incomplete testing rate of 10%, and failure to reach maximal effort at the 26-week exercise testing in 15% of participants. These assumptions were based on historical data and reflect a conservative approach to assessing within-participant correlations and failure to reach maximal effort. The primary analysis used the intention-to-treat population to evaluate the difference in the change in the primary outcome between treatment arms. This difference was assessed with an analysis of covariance (ANCOVA) with fixed factors for ventricular morphology (single left versus single right or mixed) and treatment group, with a continuous covariate of baseline max VO2. For those without data at the 26-week visit, this value was imputed as equal to the baseline value (no change). […] Secondary outcomes of continuous data points were analyzed in the manner described for the primary outcome. […]

[5] = system: adolescents with Fontan physiology; conditions: cited from earlier work
[6] = 87.5 mg twice daily, baseline to week 26
[7] = baseline before drug, mean ± SD (n)

## CCCOc1ccc(S(=O)(=O)NCCC2CCCN2C)cc1-c1nc2c(CCC)nn(C)c2c(=O)[nH]1 (centres unmarked) [Udenafil, udenafil]
[1]; 87.5 mg twice daily
  MPI, max of the difference Week 26 − Baseline: 0.2
  MPI, median (interquartile range) of the difference Week 26 − Baseline: −0.01 (−0.11, 0.05)
  MPI, min of the difference Week 26 − Baseline: −.3
  MPI difference, Week 26 − Baseline, mean (SD): 122: −0.02 (0.113)
[1]; 87.5 mg twice daily, listed as udenafil
  MPI difference, Week 26 − Baseline, mean (SD): −0.02
[1]; udenafil minus placebo, baseline, p 0.818
  MPI, LS mean dif A − B (SE), baseline: −0.0 (0.018)
[1]; udenafil minus placebo, week 26, p 0.024
  MPI, LS mean dif A − B (SE), Week 26: −0.04 (0.018)
[1]; udenafil minus placebo, p 0.028
  MPI, LS mean dif A − B (SE), difference Week 26 − Baseline: −0.03 (0.014)
[2]; human, in vivo, 26 weeks
  Participants who experienced a serious adverse event: 14
  Serious adverse events with possible, probable, or definite relationship to study drug: 3 events
[2]; in vivo
  Adverse events more common than in the placebo group: Headache, facial flushing, abdominal pain, epistaxis, and erection (male participants) were more common
  Priapism: no reported episodes of priapism
  Serious adverse events related to study drug, kind: unilateral retinal artery and vein thrombosis, transient lower extremity diplegia, and transient dyspnea
[2]; male, human, in vivo, 26 weeks
  Non-serious adverse event: increased erection, participants: 13 (11.7) n (%)
[2]; study cohort, 26 weeks
  Deaths: no deaths
[3]; [6]
  Peak VO2 (VO2 max), increase in percent: 2.8%
  VE/VCO2 at VAT, decrease in percent: 2.1%
  Work rate at VAT, improvement in percent: 5.5% and 5.2%
[3]; 87.5 mg twice daily, baseline to week 26, paired data
  VO2 at VAT, improvement in percent: 3.2%
[3]; 87.5 mg twice daily, baseline to week 26, paired data, mean ± SD (n), p 0.023 vs placebo (p=0.012)
  Anaerobic threshold oxygen consumption (VO2 at VAT), change: 30 mL/min and 33 ± 185 mL/min and 29.7 mL/min
[3]; [7]
  Peak exercise heart rate, baseline: 165 ± 20 (200) bpm
  Peak exercise minute ventilation, baseline: 71 ± 21 (199) L/min
  Peak exercise respiratory rate, baseline: 51 ± 11 (199) breaths/min
  Peak exercise work rate, baseline: 120 ± 32 (198) W
[4]; 87.5 mg twice daily, baseline to week 26, mean ± SD (n), p 0.002 vs placebo
  Resting oxygen saturation, change: 0.5%
[4]; 87.5 mg twice daily, baseline to week 26, mean ± SD (n), p 0.003 vs placebo
  Resting diastolic blood pressure, change: −2.9 mmHg
[4]; baseline to 26-week testing
  Resting diastolic blood pressure, change vs placebo (in words): small but statistically significant decrease
  Resting heart rate, respiratory rate, or systolic blood pressure, change vs placebo (in words): no difference
  Resting oxygen saturation, change vs placebo (in words): small but statistically significant increase
[5]; 87.5 mg twice daily compared with other tested regimens
  Average serum concentration: highest average serum concentration
[5]; 87.5 mg twice daily
  Dose-limiting adverse events: not associated with dose-limiting adverse events
[5]; all tested dosing regimens
  Tolerability: tolerability at all tested dosing regimens
